The record followed here is patent US20090281054A1, “COMPOSITIONS AND METHODS COMPRISING CAPURAMYCIN ANALOGUES” (priority 2008, published 2009).

The subject of assay [1] is M. smegmatis (MSMG; MC2155). In words: MIC by microdilution method in 7H9 broth. The class given is cell-based. The settings on record: 72 hr. Background: Dilution methods test growth across graded concentrations, often in twofold steps.
For assay [2], the system named is M. abscessus (MAB; ATCC 700869). The assay can be described thus: MIC by microdilution method in 7H9 broth. The format is cell-based. As to conditions: MAB 700869.
Assay [3] concerns M. kansaii (MKN; ATCC12478 & 35775). The assay can be described thus: MIC by microdilution method in 7H9 broth. The class given is cell-based, M. kansasii.
The test system of assay [4] is M. avium complex (MAC). In words: MIC by microdilution method in 7H9 broth. The format is cell-based. As to conditions: for MIC90: value in square brackets.
The target of assay [5] is translocase I (Escherichia coli, UniProt P0A6W3). The assay can be described thus: IC50 against translocase I. The class given is biochemical.
Chain of translocase I (P0A6W3 whole entry): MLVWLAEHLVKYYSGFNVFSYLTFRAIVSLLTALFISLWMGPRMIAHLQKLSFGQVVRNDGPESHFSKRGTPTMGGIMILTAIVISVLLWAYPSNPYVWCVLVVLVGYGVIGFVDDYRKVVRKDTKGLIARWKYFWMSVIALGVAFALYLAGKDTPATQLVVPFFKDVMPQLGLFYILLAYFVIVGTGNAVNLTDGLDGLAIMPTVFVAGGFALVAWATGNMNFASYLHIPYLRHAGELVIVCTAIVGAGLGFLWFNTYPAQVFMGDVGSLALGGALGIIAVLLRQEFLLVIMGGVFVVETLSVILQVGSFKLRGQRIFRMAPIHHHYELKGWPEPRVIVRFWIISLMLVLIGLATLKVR
The mark [6] stands for this setting: Mycolicibacterium smegmatis, MC2155|MC^2155, MSMG MC^2155, read-out: MIC.
The mark [7] stands for this setting: Mycobacteroides abscessus, ATCC700869, read-out: MIC.
Setting [8] is: Mycobacterium kansasii, ATCC 12478 / ATCC 35775, MKN ATCC35775, read-out: MIC.
Setting [9] is: Mycobacterium kansasii, MKN ATCC12478, read-out: MIC.
Setting [10] is: Mycobacterium avium, 336 h, MAC isolates, 2 wk, read-out: MIC (range).
[11] abbreviates: Mycobacterium avium, MAC strain 100, read-out: MIC.
Setting [12] is: Mycobacterium avium, MAC strain 101, read-out: MIC.
Where [13] appears, read: Mycobacterium avium, MAC strain 104, read-out: MIC.
The mark [14] stands for this setting: Mycobacterium avium, MAC strain 109, read-out: MIC.
The mark [15] stands for this setting: Mycobacterium avium, MAC strain A5, read-out: MIC.
[16] abbreviates: Mycobacterium avium, MAC strain JSH1, read-out: MIC.
[17] abbreviates: Mycobacterium avium, MAC strain NIH C1-1, read-out: MIC.
The mark [18] stands for this setting: Mycobacterium avium, MAC strain NIH C1-2, read-out: MIC.
The mark [19] stands for this setting: Mycobacterium avium, MAC strain NIH C1-3, read-out: MIC.
The mark [20] stands for this setting: Mycobacterium avium, MAC strain NIH C1-4, read-out: MIC.
The mark [21] stands for this setting: Mycobacterium avium, MAC isolates, read-out: MIC90.

Molecules are shown by their SMILES. Values after ≈ are worked out from the molar mass of the structure shown. Read-outs that look alike come from different tables or passages of the source.

What is called MIC is the lowest concentration that inhibits growth of the organism. One may read the MIC90 as an inhibitory concentration at the 90% level, which refers to growth in some studies and to a panel of isolates in others. Take `O=C(O)c1cn(C2CC2)c2cc(N3CCNCC3)c(F)cc2c1=O` [CIP, reference compound]: the MIC is 0.5 µg/mL (≈ 1.51 µM) in assay [1] (MSMG MC^2155), more than 32 µg/mL in assay [2], 2 µg/mL (≈ 6.04 µM) in assay [3] (MKN ATCC12478) and 0.25 µg/mL (≈ 0.754 µM) in assay [3] (MKN ATCC35775). In addition, the “MIC range” value in assay [4] (MAC isolates, 2 wk) was in the range of 0.125 to 32 µg/mL. The molecule further gave an MIC90 in assay [4] (MAC isolates) of 2 µg/mL (≈ 6.04 µM).

The term IC50 denotes the concentration that gives 50% inhibition. A low value points to greater potency. For the molecule `CO[C@H]1[C@@H](O)[C@H](n2ccc(=O)[nH]c2=O)O[C@@H]1[C@@H](O[C@H]1OC(C(=O)Nc2ccc(Br)c(C)c2)=C[C@H](O)[C@@H]1O)C(N)=O` [RKS2244], 12.4 nM corresponded to half-maximal inhibition in assay [5] (IC50). Besides, the MIC in assay [1] (setting [6]) is 1 µg/mL (≈ 1.59 µM); in assay [2] (setting [7]), 4 µg/mL (≈ 6.38 µM); in assay [3] (setting [8]), 2 µg/mL (≈ 3.19 µM); in assay [3] (setting [9]), more than 32 µg/mL; in assay [4] (setting [10]), 0.5 to 8 µg/mL (≈ 0.797 to 12.8 µM); in assay [4] (setting [11]), 0.5 µg/mL (≈ 0.797 µM). Further, the minimum inhibitory concentration (MIC) was found to be 0.25 µg/mL (≈ 0.398 µM) in assay [4] (setting [12]); 0.25 µg/mL (≈ 0.398 µM) in assay [4] (setting [13]); 0.25 µg/mL (≈ 0.398 µM) in assay [4] (setting [14]); 0.25 µg/mL (≈ 0.398 µM) in assay [4] (setting [15]); 0.5 µg/mL (≈ 0.797 µM) in assay [4] (setting [16]); 4 µg/mL (≈ 6.38 µM) in assay [4] (setting [17]). For the same molecule, the MIC is 0.5 µg/mL (≈ 0.797 µM) in assay [4] (setting [18]), 8 µg/mL (≈ 12.8 µM) in assay [4] (setting [19]) and 1 µg/mL (≈ 1.59 µM) in assay [4] (setting [20]). Moreover, the MIC90 in assay [4] (setting [21]) stood at 4 µg/mL (≈ 6.38 µM). In assay [4] (ten MAC isolates (Table 6)), this molecule gave an MIC range of 0.25 to 8 µg/mL.

Turning to `CO[C@H]1[C@@H](O)[C@H](n2ccc(=O)[nH]c2=O)O[C@@H]1[C@@H](O[C@H]1OC(C(=O)Nc2cccc(F)c2)=C[C@H](O)[C@@H]1O)C(N)=O` [RKS2186], the “IC50 against translocase I” value in assay [5] was determined as 0.01 µg/mL (≈ 0.0181 µM). In addition, the minimum inhibitory concentration (MIC) in assay [1] (setting [6]) is 4 µg/mL (≈ 7.24 µM); in assay [2] (setting [7]), 16 µg/mL (≈ 29 µM); in assay [3] (setting [8]) it was 4 µg/mL (≈ 7.24 µM); in assay [3] (setting [9]), more than 32 µg/mL; in assay [4] (setting [11]), 2 µg/mL (≈ 3.62 µM); in assay [4] (setting [12]), 2 µg/mL (≈ 3.62 µM). For the same molecule, the minimum inhibitory concentration (MIC) in assay [4] (setting [13]) is 1 µg/mL (≈ 1.81 µM); in assay [4] (setting [14]), 1 µg/mL (≈ 1.81 µM); in assay [4] (setting [15]), 1 µg/mL (≈ 1.81 µM); in assay [4] (setting [16]) it was 4 µg/mL (≈ 7.24 µM); in assay [4] (setting [17]) it was 8 µg/mL (≈ 14.5 µM); in assay [4] (setting [18]), 2 µg/mL (≈ 3.62 µM). Besides, the minimal inhibitory concentration (MIC) in assay [4] (setting [19]) came out at 8 µg/mL (≈ 14.5 µM); in assay [4] (setting [20]), 2 µg/mL (≈ 3.62 µM). For the same molecule, the MIC90 in assay [4] (setting [21]) came out at 8 µg/mL (≈ 14.5 µM).

Regarding `COC(=O)C1=C[C@H](O)[C@H](O)[C@@H](O[C@@H](C(N)=O)[C@H]2O[C@@H](n3ccc(=O)[nH]c3=O)[C@H](O)[C@@H]2OC)O1` [RS 120029], the MIC in assay [1] (setting [6]) is more than 32 µg/mL; in assay [2] (setting [7]), more than 32 µg/mL; in assay [3] (setting [8]), more than 32 µg/mL; in assay [3] (setting [9]) it was more than 32 µg/mL; in assay [4] (setting [11]), 32 µg/mL (≈ 67.6 µM); in assay [4] (setting [12]) it was more than 32 µg/mL. In addition, the minimum inhibitory concentration (MIC) was 32 µg/mL (≈ 67.6 µM) in assay [4] (setting [13]); 32 µg/mL (≈ 67.6 µM) in assay [4] (setting [14]); 32 µg/mL (≈ 67.6 µM) in assay [4] (setting [15]); more than 32 µg/mL in assay [4] (setting [16]); more than 32 µg/mL in assay [4] (setting [17]); more than 32 µg/mL in assay [4] (setting [18]). In addition, the minimum inhibitory concentration (MIC) in assay [4] (setting [19]) and in assay [4] (setting [20]) was more than 32 µg/mL in each case. Besides, the MIC90 in assay [4] (setting [21]) was 32 µg/mL (≈ 67.6 µM).

Regarding `COc1c(N2C[C@@H]3CCCN[C@@H]3C2)c(F)cc2c(=O)c(C(=O)O)cn(C3CC3)c12` [MOX, moxifloxacin, reference compound], the MIC in assay [1] (Mycolicibacterium smegmatis, MC2155|MC^2155, read-out: MIC) is 0.125 µg/mL (≈ 0.311 µM); in assay [2] (setting [7]) it was more than 32 µg/mL; in assay [3] (setting [8]) it was 0.031 µg/mL (≈ 0.0772 µM); in assay [3] (setting [9]), 0.125 µg/mL (≈ 0.311 µM).

The molecule `CO[C@H]1[C@@H](O)[C@H](n2ccc(=O)[nH]c2=O)O[C@@H]1[C@@H](O[C@H]1OC(C(=O)Nc2ccc(OC(F)(F)F)cc2)=C[C@H](O)[C@@H]1O)C(N)=O` [RKS2241] showed an IC50 in assay [5] of 24.3 nM. Besides, the MIC in assay [1] (setting [6]) was 4 µg/mL (≈ 6.47 µM); in assay [2] (setting [7]) it was 2 µg/mL (≈ 3.23 µM); in assay [3] (setting [8]), 2 µg/mL (≈ 3.23 µM); in assay [3] (setting [9]), 32 µg/mL (≈ 51.7 µM); in assay [4] (setting [10]), 0.5 to 16 µg/mL (≈ 0.808 to 25.9 µM); in assay [4] (setting [11]), 2 µg/mL (≈ 3.23 µM). Further, the MIC in assay [4] (setting [12]) amounted to 1 µg/mL (≈ 1.62 µM); in assay [4] (setting [13]), 0.5 µg/mL (≈ 0.808 µM); in assay [4] (setting [14]) it was 0.5 µg/mL (≈ 0.808 µM); in assay [4] (setting [15]), 1 µg/mL (≈ 1.62 µM); in assay [4] (setting [16]) it was 2 µg/mL (≈ 3.23 µM); in assay [4] (setting [17]), 8 µg/mL (≈ 12.9 µM). For the same molecule, the MIC in assay [4] (setting [18]) stood at 1 µg/mL (≈ 1.62 µM); in assay [4] (setting [19]) it was 16 µg/mL (≈ 25.9 µM); in assay [4] (setting [20]), 2 µg/mL (≈ 3.23 µM). Further, the MIC90 in assay [4] (setting [21]) came out at 8 µg/mL (≈ 12.9 µM).
